Data as given in patent US8242058B2, “Reagents and methods for appending functional groups to proteins” (Wisconsin Alumni Research Foundation, priority 2006, dated 2012).

Assays:
[1] = Immobilization on phosphinothioester-displaying chips by Staudinger ligation, immunofluorescence detection; details: 10 μM in 5% DMF/water, r.t.
Protocol: Preparation of Gold Chips (Chang). Preparation of Phosphinothioester-displaying SAMs of Alkane Thiols on Gold Chips. Alkane thiol solutions were prepared by dissolving HS—(CH2)11—(O—CH2—CH2)6—O—CH2—COOH and HS—(CH2)11—(O—CH2—CH2)3—OH in ethanol to a final concentration of 0.25 mM each. Gold chips were cleaned under a stream of Ar(g) and immersed in the alkane thiol solution for at least 18 h at r.t. After rinsing thoroughly with ethanol and drying under a stream of Ar(g), the chips were overlaid with an aqueous solution containing N-hydroxysuccinimide (50 mM) and 1-ethyl-3-(3-dimethylaminopropyl)-carbodiimide (200 mM) for 7 min to generate succinimidyl ester-displaying chips. Phosphinomethanethiol (PPh2CH2SH) was synthesized as described earlier and was dissolved in anhydrous DMF to a concentration of 100 mM. N,N-diisopropylethylamine (DIPEA) was added to a concentration of 120 mM. […]
Detection of Immobilized RNase A. A chip displaying immobilized RNase A was overlaid with anti-RNase A rabbit primary antibody (100 μg/mL in sodium phosphate buffer (25 mM) at pH 7.5) for 30 min at r.t. […] Finally, the chip was rinsed with sodium phosphate buffer (25 mM) at pH 7.5 (2×20 mL) and incubated in the same buffer for 15 min and scanned with a Genomic Solutions® GeneTac UC4×4 Fluorescence Scanner using a gain of 50.

[2] = molecular target: T1, ribonuclease inhibitor protein (RI) (Homo sapiens, UniProt P13489); assay: RI binding to immobilized RNase A (immunoassay, ellipsometry); details: RI 10 μM, 10 min at 4° C.
T1 sequence (P13489 2-461 limits assumed): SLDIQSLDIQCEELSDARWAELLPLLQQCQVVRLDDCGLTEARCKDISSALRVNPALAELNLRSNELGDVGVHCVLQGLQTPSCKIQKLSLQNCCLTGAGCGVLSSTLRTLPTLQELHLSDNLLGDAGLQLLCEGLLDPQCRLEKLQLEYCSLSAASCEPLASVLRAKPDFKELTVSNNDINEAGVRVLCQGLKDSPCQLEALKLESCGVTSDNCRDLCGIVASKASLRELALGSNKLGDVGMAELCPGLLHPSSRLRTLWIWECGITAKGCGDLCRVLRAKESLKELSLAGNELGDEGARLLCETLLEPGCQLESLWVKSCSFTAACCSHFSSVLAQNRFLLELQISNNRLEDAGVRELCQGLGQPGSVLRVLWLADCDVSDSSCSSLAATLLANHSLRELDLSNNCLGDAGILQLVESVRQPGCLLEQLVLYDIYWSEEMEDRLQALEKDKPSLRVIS
Protocol: RI binding to immobilized RNase A. Azido-RNase A (1 μL, 10 μM in 5% DMF/water) was spotted on phosphinothioester-displaying SAMs on a gold chip for 15 minutes at r.t. in an AtmosBag™ filled with Ar(g). The chip was taken out of the bag and rinsed with sodium phosphate buffer (25 mM) at pH 7.5 (2×20 mL) and incubated in the same buffer for 30 min to remove non-specifically bound RNase A. RI (10 μM in sodium phosphate buffer (25 mM) at pH 7.5 containing 10 mM DTT) was overlaid on the chip for 10 min at 4° C. The chip was then rinsed with sodium phosphate buffer (25 mM) at pH 7.5 containing 10 mM DTT (2×20 mL) and incubated in the same buffer for 15 min.
Detection of RI bound to immobilized RNase A. (i) Immunoassay: After RI binding, the chip was overlaid with bovine serum albumin (2.0 mg/mL in sodium phosphate buffer (25 mM) at pH 7.5) for 15 min. The chip was rinsed with sodium phosphate buffer (25 mM) at pH 7.5 (2×20 mL) and subsequently incubated with chicken primary antibody to RI (12.5 μg/mL in sodium phosphate buffer (25 mM) at pH 7.5) for 15 min. […] The chip was scanned with a Genomic Solutions® GeneTac UC4×4 Fluorescence Scanner using a gain of 50. […]

[3] = test system: 6-carboxyfluorescein-dArU(dA)2-6-carboxytetramethylrhodamine; assay: RNase A activity assay on immobilized RNase A; assay type: biochemical; details: chip overlaid with 10 μM protein, pH 6.0
Protocol: RNase A activity assay on immobilized RNase A. A phosphinothioester chip was overlaid with azido-RNase A (10 μM in 5% DMF/H2O) for 15 min in Ar(g) atmosphere in an AtmosBag™ to immobilize RNase A via Staudinger ligation. The chip was rinsed with sodium phosphate buffer (25 mM) at pH 7.5 (2×20 mL) and then introduced into a vial containing 2-(N-Morpholino)ethanesulfonic acid buffer (0.1 M) at pH 6.0 (22 mL, containing 0.1 M NaCl). A fluorogenic substrate of RNase A, 6-carboxyfluorescein-dArU(dA)2-6-carboxytetramethylrhodamine (10 μl of a 40 μM solution), was introduced into the vial. The vial was placed on a shaker and 2 mL aliquots were withdrawn at various time intervals and the fluorescence measured (λex=493 nm, λem=515 nm). The fluorescence intensity was plotted against time. A phosphinothioester chip was overlaid with wt-RNase A (10 μM in 5% DMF/H2O) and rinsed with sodium phosphate buffer (25 mM) at pH 7.5 (2×20 mL) and a similar assay was performed. As a negative control, a similar assay was performed on a phosphinothioester chip which was not overlaid with RNase A. The percentage of the fluorescent substrate cleaved at various time intervals were subtracted from the corresponding values for the negative control to generate the graph in FIG. 8.

Met(−1)RNase A-Gly-NHNHCH2C(O)NHCH2CH2N3 [azido-RNase A]
time at which fluorescence signal of immobilized protein was detected [1]: ≤ 1 min | RI binding to chip incubated with the protein [2]: bound RI | enzymatic activity of chip incubated with the protein (increase of fluorescence intensity) [3]: much faster rate
